Measurements as given in PubChem BioAssay AID330 (DTP/NCI, 2004).
“And” between values parts separate entries of the source, which are not always exact repeats. Equal values may be shown once. Toxic doses and inconclusive results are not listed. Rule for the calls: active = survival T/C of 150% or more; inactive = T/C below 125% in these data.

Tested on: P388 leukemia ip, CD2F1 mice, survival T/C
Assay: NCI In Vivo Anticancer Drug Screen. Data for tumor model P388 Leukemia (intraperitoneal) in CD2F1 (CDF1) mice
Conditions: endpoint: median survival time, higher = longer survival
How it was run: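 Mice carrying the transplanted tumor received test compound or vehicle. Survival was recorded in each group, and the value is the treated-group measurement divided by that of the vehicle-treated control group.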

[1] = dose: 6.25 mg/kg/injection, schedule: Q01DX005 (ip), vehicle: saline with Tween-80
[2] = dose: 12.5 mg/kg/injection, schedule: Q01DX005 (ip), vehicle: saline with Tween-80
[3] = dose: 60.0 mg/kg/injection, schedule: Q01DX005 (ip), vehicle: Klucel (hydroxypropylcellulose) (HPC)
[4] = dose: 120.0 mg/kg/injection, schedule: Q01DX005 (ip), vehicle: Klucel (hydroxypropylcellulose) (HPC)
[5] = dose: 240.0 mg/kg/injection, schedule: Q01DX005 (ip), vehicle: Klucel (hydroxypropylcellulose) (HPC)
[6] = dose: 50.0 mg/kg/injection, schedule: Q01DX009 (ip), vehicle: Klucel (hydroxypropylcellulose) (HPC)
[7] = dose: 100.0 mg/kg/injection, schedule: Q01DX009 (ip), vehicle: Klucel (hydroxypropylcellulose) (HPC)
[8] = dose: 200.0 mg/kg/injection, schedule: Q01DX009 (ip), vehicle: Klucel (hydroxypropylcellulose) (HPC)
[9] = dose: 100.0 mg/kg/injection, schedule: Q04DX003 (ip), vehicle: saline
[10] = dose: 200.0 mg/kg/injection, schedule: Q04DX003 (ip), vehicle: saline
[11] = dose: 50.0 mg/kg/injection, schedule: Q01DX005 (ip), vehicle: saline with Tween-80
[12] = dose: 100.0 mg/kg/injection, schedule: Q01DX005 (ip), vehicle: saline with Tween-80
[13] = dose: 200.0 mg/kg/injection, schedule: Q01DX005 (ip), vehicle: saline with Tween-80
[14] = dose: 50.0 mg/kg/injection, schedule: Q01DX009 (ip), vehicle: saline with Tween-80
[15] = dose: 100.0 mg/kg/injection, schedule: Q01DX009 (ip), vehicle: saline with Tween-80
[16] = dose: 200.0 mg/kg/injection, schedule: Q01DX009 (ip), vehicle: saline with Tween-80
[17] = dose: 100.0 mg/kg/injection, schedule: Q04DX003 (ip), vehicle: saline with Tween-80
[18] = dose: 200.0 mg/kg/injection, schedule: Q04DX003 (ip), vehicle: saline with Tween-80
[19] = dose: 400.0 mg/kg/injection, schedule: Q04DX003 (ip), vehicle: saline with Tween-80

Measured: T/C

NNc1ncnc2nc[nH]c12
inactive: dose: 6.25 mg/kg/injection, schedule: Q01DX009 (ip), vehicle: saline sonified 95 % of control | dose: 6.25 mg/kg/injection, schedule: Q01DX009 (ip), vehicle: saline 100 % of control | dose: 6.25 mg/kg/injection, schedule: Q01DX009 (ip), vehicle: suspension in saline 111 % of control | dose: 12.5 mg/kg/injection, schedule: Q01DX009 (ip), vehicle: saline sonified 100 % of control | dose: 12.5 mg/kg/injection, schedule: Q01DX009 (ip), vehicle: saline 100 % of control | dose: 12.5 mg/kg/injection, schedule: Q01DX009 (ip), vehicle: suspension in saline 100 % of control | dose: 25.0 mg/kg/injection, schedule: Q01DX009 (ip), vehicle: saline sonified 120 % of control | dose: 25.0 mg/kg/injection, schedule: Q01DX009 (ip), vehicle: saline 106 % of control | dose: 25.0 mg/kg/injection, schedule: Q01DX009 (ip), vehicle: suspension in saline 103 % of control | dose: 50.0 mg/kg/injection, schedule: Q01DX009 (ip), vehicle: suspension in saline 119 % of control | dose: 100.0 mg/kg/injection, schedule: Q04DX003 (ip), vehicle: saline sonified 109 % of control | dose: 200.0 mg/kg/injection, schedule: Q04DX003 (ip), vehicle: saline sonified 90 % of control

N#CC(Br)(Br)C(=O)c1nc(N)nc(N)n1
inactive: dose: 3.12 mg/kg/injection, schedule: Q01DX005 (ip), vehicle: saline with Tween-80 96 % of control | [1] 100 % of control | [2] 104 % of control

CCOc1nc(N)nc(C)c1N=Nc1cccc([N+](=O)[O-])c1
inactive: [3] 100 % of control | [4] 94 % of control | [5] 103 % of control

CNNC(=O)OC
inactive: dose: 25.0 mg/kg/injection, schedule: Q01DX002 (ip), vehicle: saline 101 % of control | dose: 50.0 mg/kg/injection, schedule: Q01DX002 (ip), vehicle: saline 102 % of control | dose: 100.0 mg/kg/injection, schedule: Q01DX002 (ip), vehicle: saline 120 % of control

CC(C)[C@H](C)C(=O)C1OCOC(C2CC(=O)NC(=O)C2)[C@@H]1O (some centres undefined)
inactive: dose: 0.01 mg/kg/injection, schedule: Q01DX009 (ip), vehicle: distilled water + alcohol 102 % of control | dose: 0.03 mg/kg/injection, schedule: Q01DX009 (ip), vehicle: distilled water + alcohol 109 % of control | dose: 0.06 mg/kg/injection, schedule: Q01DX009 (ip), vehicle: distilled water + alcohol 109 % of control | dose: 0.12 mg/kg/injection, schedule: Q01DX009 (ip), vehicle: distilled water + alcohol 100 % of control

O=C1OC2=C(CCCc3ccccc32)C(N(c2ccccc2)c2ccccc2)C1(Cl)Cl (centres undefined)
inactive: [6] 96 % of control | [7] 88 % of control | [8] 89 % of control

C#CCOC(=O)C(Cl)(Cl)Cl
inactive: [9] 107 % of control | [10] 115 % of control

[CH3][Ge]([c]1ccccc1)[c]1cccc2ccccc12.[CH3][Sn]([CH3])[c]1ccccc1
inactive: [9] 100 % of control | [10] 100 % of control | dose: 400.0 mg/kg/injection, schedule: Q04DX003 (ip), vehicle: saline 101 % of control

O=C(NCCNC(=O)c1cccnc1)c1cccnc1
inactive: [11] 118 % of control | [12] 108 % of control | [13] 111 % of control

O=C/C=C/c1ccc2c(c1)OC(CO)C(c1ccc(O)c(O)c1)O2 (centres undefined)
inactive: dose: 3.12 mg/kg/injection, schedule: Q01DX005 (ip), vehicle: Klucel (hydroxypropylcellulose) (HPC) 86 % of control | dose: 6.25 mg/kg/injection, schedule: Q01DX005 (ip), vehicle: Klucel (hydroxypropylcellulose) (HPC) 91 % of control

N#Cc1ccc(NC(=O)CCCC(=O)Nc2ccc(C#N)c(C#N)c2)cc1C#N
inactive: [6] 97 % of control | [7] 94 % of control | [8] 96 % of control

C1CCC2(CC1)OCCCO2
inactive: dose: 100.0 mg/kg/injection, schedule: Q01DX001 (ip), vehicle: Klucel (hydroxypropylcellulose) (HPC) 94 % of control | dose: 200.0 mg/kg/injection, schedule: Q01DX001 (ip), vehicle: Klucel (hydroxypropylcellulose) (HPC) 99 % of control | dose: 400.0 mg/kg/injection, schedule: Q01DX001 (ip), vehicle: Klucel (hydroxypropylcellulose) (HPC) 107 % of control

CCOC(=O)CN1CN(CCc2ccccc2)CC(C)(C)C1OCC (centres undefined)
inactive: [14] 104 % of control | [15] 101 % of control | [16] 121 % of control | dose: 400.0 mg/kg/injection, schedule: Q01DX009 (ip), vehicle: saline with Tween-80 112 % of control

N#Cc1ccccc1NCc1ccccc1
inactive: dose: 12.5 mg/kg/injection, schedule: Q01DX009 (ip), vehicle: distilled water + Tween-80 103 % of control | dose: 25.0 mg/kg/injection, schedule: Q01DX009 (ip), vehicle: distilled water + Tween-80 102 % of control | dose: 50.0 mg/kg/injection, schedule: Q01DX009 (ip), vehicle: distilled water + Tween-80 100 % of control and 97 % of control | dose: 100.0 mg/kg/injection, schedule: Q01DX009 (ip), vehicle: distilled water + Tween-80 100 % of control and 103 % of control and 92 % of control | dose: 200.0 mg/kg/injection, schedule: Q01DX009 (ip), vehicle: distilled water + Tween-80 94 % of control and 95 % of control (2×) | dose: 400.0 mg/kg/injection, schedule: Q01DX009 (ip), vehicle: distilled water + Tween-80 99 % of control and 93 % of control | dose: 600.0 mg/kg/injection, schedule: Q01DX009 (ip), vehicle: distilled water + Tween-80 99 % of control

O=C(O)c1cc(C(=O)C(=O)c2cc(C(=O)O)c(O)c3ccccc23)c2ccccc2c1O
inactive: [14] 95 % of control | [15] 95 % of control | [16] 101 % of control

FC(F)(F)c1nc(SCc2ccc(Cl)cc2)n[nH]1
inactive: dose: 30.0 mg/kg/injection, schedule: Q01DX005 (ip), vehicle: Klucel (hydroxypropylcellulose) (HPC) 103 % of control | [3] 96 % of control | [4] 98 % of control | [5] 102 % of control

CCOC(=O)c1sc2nc(C)cc(C)c2c1N
inactive: [1] 95 % of control | [2] 100 % of control | dose: 25.0 mg/kg/injection, schedule: Q01DX005 (ip), vehicle: saline with Tween-80 98 % of control

CC1=C(C(=O)/C=C/c2ccccc2)C(=O)c2ccccc2C1=O
inactive: [11] 95 % of control | [12] 87 % of control | [13] 105 % of control

CCOC(=O)c1nc2cc(C)c(C)cc2[nH]c1=O
inactive: [17] 95 % of control | [18] 100 % of control | [19] 104 % of control

Cc1ccc2c(c1)CN(C13CC4CC(CC(C4)C1)C3)CO2
inactive: dose: 66.0 mg/kg/injection, schedule: Q04DX003 (ip), vehicle: saline with Tween-80 95 % of control | [17] 100 % of control | dose: 150.0 mg/kg/injection, schedule: Q04DX003 (ip), vehicle: saline with Tween-80 100 % of control | [18] 105 % of control | [19] 115 % of control

CSc1ncnc2c1ncn2C(SC)C(OC(C)=O)C(OC(C)=O)C(OC(C)=O)C(COC(C)=O)OC(C)=O (centres undefined)
inactive: [11] 96 % of control | [12] 97 % of control | [13] 102 % of control
